According to patent US20040248898A1, “Remedies for arteriosclerosis” (priority 2001, published 2004):

What was measured:
[1] = molecular target: T1, human group X sPLA2 (Homo sapiens, UniProt O15496); test: Fatty acid release from isolated human lipoproteins induced by group X sPLA2; assay type: biochemical; details: agent 10 μmol/L, added with sPLA2; arachidonic acid from LDL (FIG. 2)
T1 sequence (O15496 43-165): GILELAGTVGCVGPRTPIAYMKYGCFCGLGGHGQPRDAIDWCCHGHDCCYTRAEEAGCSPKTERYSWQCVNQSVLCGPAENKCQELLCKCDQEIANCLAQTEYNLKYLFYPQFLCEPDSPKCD
Protocol: LDL and HDL were isolated from human plasma by ultracentrifugation (Havel, et al., J. Clin. Invest. 34, 1345-1353 (1955)). Human group IB, IIA and X sPLA2s (0.5 nmol/L to 500 nmol/L) were reacted with LDL and HDL (0.35-1 mg/ml) at 37° C. in a solution containing 12.5 mmol/L Tris-HCL buffer (pH 8.0), 125 mg/L bovine serum albumin, and 1 mmol/L calcium chloride. The fatty acids released from the lipoproteins were extracted according to the method of Dole (Dole, et al., J. Biol. Chem. 235, 2595-2599 (1960)), and were labeled with 9-anthryldiazomethane by the known method (Hanasaki, et al., J. Biol. Chem. 274, 34203-34211 (1999)). Then, the released fatty acids were determined by detecting fluorescence of the labeled products (fatty acids) eluted from high performance liquid chromatography (HPLC) on reverse-phase column (LichroCART 125-4 Superspher 100 RP-18 columnmol/Merck). In order to examine does-dependent release of fatty acids induced by each sPLA2, the lipoprotein was reacted with 0.5, 5, 50, and 500 nmol/L group X sPLA2, and 50 and 500 nmol/L group IB and IIA sPLA2 for 60 minutes. Further, in order to examine time-dependent fatty acid release induced by sPLA2, each 50 nmol/L sPLA2 was used, and the change in the release with time course was traced during the period time of 4 hours after the sPLA2 addition. In the experiment for determining the inhibitory activity of a sPLA2 inhibitor (indoxam; Yokota, et al., Biochim. Biophys. Acta 1438, 213-222 (1999)), a cyclooxygenase (COX) inhibitor (indomethacin) or a 5-lipoxygenase (5-LOX) inhibitor (AA-861; 2,3,5-trimethyl-6-(12-hydroxy-5,10-dodecadiynyl)-1,4-benzoquinone (Yoshimoto, et al., Biochem. Biophys. Acta. 713, 470-473 (1982)), those agents were added to the reaction giving a final concentration of 10 μmol/L, virtually simultaneously with the addition of sPLA2.

[2] = molecular target: T1, human group X sPLA2; test: Negative charge of isolated human lipoproteins (agarose gel electrophoresis) after group X sPLA2; assay type: biochemical; details: agent 10 μmol/L; LDL and HDL, 50 nmol/L sPLA2
Protocol: LDL and HDL were isolated from human plasma by ultracentrifugation (Havel, et al., J. Clin. Invest. 34, 1345-1353 (1955)). Human group IB, IIA and X sPLA2s (50 nmol/L) and CuSO4 (20 μmol/L) were reacted with LDL and HDL (1 mg/ml) at 37° C. for 3, 6, and 24 hours in a solution containing 12.5 mmol/L Tris-HCL buffer (pH 8.0), 125 mg/L bovine serum albumin, and 1 mmol/L calcium chloride. Then, a 1 μg sample of LDL and a 2 μg sample of HDL were electrophoresed on agarose gel (Helena Laboratories, TITAN GEL Lipoprotein; 90V, 25 minutes). After the electrophoresis, the gel was dried at 50 to 60° C. for about 1 hour, stained with 6 ml of a stain solution (Helena Laboratories, Fat Red 7B agarose solution) for about 3 minutes, and then decolorized with 25 ml of a decolorizing solution (70% methanol). In the experiment for determining the activity of a sPLA2 inhibitor (indoxam), a COX inhibitor (indomethacin) or a 5-LOX inhibitor (AA-861), those agents were added to the reaction giving a final concentration of 10 μmol/L, virtually simultaneously with the addition of sPLA2.

[3] = tested on: mouse peritoneal macrophages; test: Uptake of LDL into mouse peritoneal macrophages induced by group X sPLA2 (Oil Red O stain); assay type: cell-based; details: agent 10 μmol/L; 0.2 mg/ml LDL, 50 nmol/L group X sPLA2, 48 hours
Protocol: C57BL/6J mice (male, 8 weeks) were injected peritoneally with 2 ml of a 4% thioglycollate solution, and, 4 days later, the cells from the peritoneal fluids were harvested. The cells were plated on a chamber slide, and incubated for 2 hours in the presence of the serum-free medium (BIO […]: X-VIVO 15). Then, non-adherent cells were removed by the washing procedure to prepare peritoneal macrophages. The cells were added with 0.2 mg/ml LDL (Sigma) and 50 nmol/L group X PLA2, and incubated in the serum-free medium for 48 hours. Uptake of LDL into macrophages were confirmed by immobilizing the cells with 4% formaldehyde for 20 minutes, and then staining the lipids with an Oil Red O stain solution.

[4] = molecular target: T2, human group V sPLA2 (Homo sapiens, UniProt P39877); test: Fatty acid (linoleic acid) release from isolated human lipoproteins induced by group V sPLA2; assay type: biochemical; details: agent 10 μmol/L; from LDL (FIG. 8)
T2 construct: made in house; host or cells: CHO cells, stably transfected (pSVL vector); culture supernatant used
T2 sequence (P39877 21-138): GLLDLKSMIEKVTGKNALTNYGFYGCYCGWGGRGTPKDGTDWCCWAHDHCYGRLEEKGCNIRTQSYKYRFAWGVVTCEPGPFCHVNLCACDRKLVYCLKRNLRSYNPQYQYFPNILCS
Protocol: LDL and HDL were isolated from human plasma by ultracentrifugation (Havel, et al., J. Clin. Invest. 34, 1345-1353 (1955)). […] Biol. Chem. 235, 2595-2599 (1960)). The fatty acids were labeled with 9-anthryldiazomethane by the known method ([…], et al., J. Biol. Chem. 274, 34203-34211 (1999)), and then were determined by detecting fluorescence of the labeled products (fatty acids) eluted from high performance liquid chromatography (HPLC) on reverse-phase column (LichroCART 125-4 Superspher 100 RP-18 column, Merck).

[5] = molecular target: T2, human group V sPLA2; test: Degeneration (negative charge, agarose gel electrophoresis) of isolated human lipoproteins by group V sPLA2; assay type: biochemical; details: agent 10 μmol/L; LDL and HDL, 50 nmol/L sPLA2
Protocol: LDL and HDL were isolated from human plasma by ultracentrifugation (Havel, et al., J. Clin. Invest. 34, 1345-1353 (1955)). Human group IIA and V sPLA2s (50 nmol/L) were reacted with LDL and HDL (1 mg/ml) at 37° C. for 3, 6, and 24 hours in a solution containing 12.5 mmol/L Tris-HCL buffer (pH 8.0), 125 mg/L bovine serum albumin, and 1 mmol/L calcium chloride, and then 1 μg of the LDL and 2 μg of the HDL were spotted on an agarose gel (Helena Laboratories, TITAN GEL Lipoprotein), followed by being electrophoresed at 90V for 25 minutes. After the electrophoresis, the gels were dried at 50 to 60° C. for about one hour, stained with 6 ml of a stain solution (Helena Laboratories, Fat Red 7B agarose solution) for about three minutes, and then decolorized with 25 ml of a decolorizing solution (70% methanol).

CCc1c(C(=O)C(N)=O)c2c(OCC(=O)O)cccn2c1Cc1ccccc1-c1ccccc1 [indoxam]
inhibited: Effect on fatty acid release induced by group X sPLA2 [1] | Effect on lipoprotein degeneration (increase in negative charge) induced by group X sPLA2 [2] | Effect on group X sPLA2-induced uptake of LDL into the cells [3] | Effect on linoleic acid release induced by group V sPLA2 [4] | Effect on lipoprotein degeneration induced by group V sPLA2 [5]
